Where a name gives a salt, the structure may show the parent alone.
Key:
Assay type in all cases: cell-based, Human
[1] = system: T47D (Ductal carcinoma of breast); assay: In vitro cytotoxicity, microculture tetrazolium (MTT) assay, T47D; settings: 48 h with compound, further 48 h, Table 1
Experimental: (§1) The microculture tetrazolium assay was used to test in vitro cytotoxicity. This assay is described in Plumb, J. A. et al., 1989 Cancer Research 49, 4435-4440, which is herein incorporated by reference. The cytotoxicity of compounds towards tumor cells is measured in vitro using the assay. This assay method is based upon the ability of live, but not dead cells to reduce the yellow water soluble dye 3-(4,5-dimethylthiazol-2-yl)-2,5-diphenyltetrazolium bromide (MTT) to its water insoluble purple formazan product.
(§2) Human Tumor Cell lines, used were:
T47D (Ductal carcinoma of breast)--ATCC catalog #HTB-133.
(§3) The cells were maintained in exponential growth in culture in minimal essential media (MEM) supplemented with non-essential amino acids, and containing 15% (v/v) fetal. bovine serum, 5 mM L-glutamine, 1 mM sodium pyruvate, and 0.1 U/ml insulin. All cell lines were grown at 37° C. in an atmosphere of 5% CO2 in air.
(§4) MTT: 2 mg/ml in phosphate buffered saline (stable at 4° C. in dark for 1 week).
(§5) Sorensen's buffer: 0.1M glycine/NaOH, pH 10.5, containing 0.1M NaCl.
(§6) Test compounds: 20 mM in DMSO and diluted to a final concentration of 200 μM in culture medium before use.
(§7) For each assay, doxorubicin is included as an inter-assay standard. This allows us to monitor the behaviour of the assay in general, and in particular, to check that the SKVLB line has maintained its resistant phenotype.
(§8) The assays are carried out in 96-well (8 well×12 well) microtiter plates. Serial dilutions of the compound are tested along the length of the plate. A 1:3 serial dilution of compound in culture medium covers a concentration range from 100 μM to 1.7 nM. Each concentration of compound is tested in quadruplet, allowing two compounds to be tested per plate. Wells containing no cells (blank) and cells with no test compound (control) are included on each plate.
(§9) Cells are plated out in 100 μl of culture medium in the microtiter plates at a density of around 1,500-4,000 cells per well. The plates are incubated overnight to allow the cells to become adherent after which the test compound is added (100 μl of appropriate dilution per well). The cells are incubated with test compound at 37° C. for 48 h after which the compound is replaced with fresh medium. After a further 48 h incubation at 37° C., 50 μl of MTT solution (2 mg/ml) is added to each well. The plates are incubated in the dark for 4 h at 37° C. after which the medium is removed. The MTT formazan product is extracted from the cells by the addition of 200 μl DMSO followed by 50 μl of Sorensen's buffer. The plates are shaken briefly and the absorbance at 570 nm is read using a Molecular Devices UV max plate reader. Curves are fit to the MTT assay data using a four parameter logistic equation, and the data are normalized to fit a 0% to 100% survival scale.

Lox (Melanoma) = assay: In vitro cytotoxicity, microculture tetrazolium (MTT) assay, LOX; settings: 48 h with compound, further 48 h, Table 1
Experimental: as §1, §2
Lox (Melanoma)--Southern Research Institute.
as §3, §4, §5, §6, §7, §8, §9

[2] = system: SKVLB (Ovarian; multidrug resistant); assay: In vitro cytotoxicity, microculture tetrazolium (MTT) assay, SKVLB; settings: Homo sapiens; SKVLB multidrug resistant ovarian; 48 h with compound, further 48 h, MTT; Table 1
Experimental: as §1, §2
SKVLB (Ovarian; multidrug resistant)--Dr. V. Ling, Ontario Cancer Institute.
as §3, §4, §5, §6, §7, §8, §9

[3] = system: SKOV3 (Ovarian adenocarcinoma); assay: In vitro cytotoxicity, microculture tetrazolium (MTT) assay, SKOV3; settings: SKOV3 ovarian adenocarcinoma, 48 h with compound, further 48 h, MTT, Table 1
Experimental: as §1, §2
SKOV3 (Ovarian adenocarcinoma)--provided by Dr. V. Ling, Ontario Cancer Institute.
as §3, §4, §5, §6, §7, §8, §9

[4] = system: HT 29 (Colon adenocarcinoma); assay: In vitro cytotoxicity, microculture tetrazolium (MTT) assay, HT29; settings: further 48 h, Table 1
Experimental: as §1, §2
HT 29 (Colon adenocarcinoma) ATCC catalog #HTB-38.
as §3, §4, §5, §6, §7, §8, §9

[5] = Homo sapiens, HT-29, 48 h with compound

Row | Compound | IC50 ([1]; Homo sapiens) [nM] | IC50 (Lox (Melanoma); Homo sapiens) [nM] | IC50 [2] [nM] | IC50 ([3]; Homo sapiens, SK-OV-3) [nM] | IC50 [4, 5] [nM] | IC50 [1] [nM] | IC50 (Lox (Melanoma)) [nM] | IC50 [3] [nM] | IC50 ([4]; 48 h with compound) [nM]
1 | COC(=O)[C@@H](N)COC1OC(C(C)=O)CC2=C1C(=O)c1ccccc1C2=O (mixture of isomers) [BCH1654, (1S, 2'S, 3R) and (1R, 2'S, 3S)-methyl-(1-[O-serinemethyl ester]-5,10-dioxo-3,4,5,10-tetrahydronaphtaleno[2,3-C]pyran-3-yl) ketone hydrochloride] | 1590 | 1190 | 3730 | 710 | 3580 |  |  |  | 
2 | CC(=O)C1CC2=C(C(=O)c3ccccc3C2=O)C(OCC2CCCN(C(=O)OC(C)(C)C)C2)O1 (mixture of isomers) [BCH2060, Methyl-(1-O-[N-BOC-3-piperidinemethanol]-5,6-dioxo-3,4,5,10-tetrahydronaphthaleno-[2,3-c]pyran-3-yl) ketone] | 562 | 1950 | 2500 | 1140 | 260 |  |  |  | 
3 | CC(=O)C1CC2=C(C(=O)c3ccccc3C2=O)C(OCC2CCCNC2)O1 (mixture of isomers) [BCH2061, Methyl-(1-O-[3-piperidinemethanol]-5,10-dioxo-3,4,5,10-tetrahydronaphthaleno-[2,3-c]pyran-3-yl) ketone hydrochloride salt] | 270 | 45 | 141 | 8.3 | 54 |  |  |  | 
4 | CC(=O)C1CC2=C(C(=O)c3ccccc3C2=O)C(O[C@H]2C[C@H](NC(=O)C(F)(F)F)[C@H](OS(C)(=O)=O)[C@H](C)O2)O1 (mixture of isomers) [BCH2095, (1'-S, 1-S, 3-R) and (1'-S, 1-R, 3-S)-methyl-(1-[2',3',4',6' tetradeoxy-3'-trifluoroacetamido-4'-O-methane-sulfonyl-L-lyxohexopyranose)-5,10-dioxo-3,4,5,10 tetrahydronaphtho-[2,3-c]pyran-3-yl) ketone] | 370 | 140 | 1600 | 190 | 99.6 |  |  |  | 
5 | CC(=O)CC1CC2=C(C(=O)c3cccc(O)c3C2=O)C(O[C@H]2C[C@H](NC(=O)C(F)(F)F)[C@H](O)[C@H](C)O2)O1 (mixture of isomers) [BCH2098, (1'-S, 1-S, 3-R) and (1'-S, 1-R, 3-S)-1-(6-hydroxy-1-(2',3',6'-trideoxy-3'-trifluoroacetamido, 4-hydroxy-L-lyxopyranose)-5,10-dioxo-3,4,5,10 tetrahydronaphtho-[2,3-c]pyran-3-yl) propane-2-one] | 10000 | 4200 | 30000 | 8000 | 17000 |  |  |  | 
6 | CC(=O)C1CC2=C(C(=O)c3ccccc3C2=O)C(O[C@H]2C[C@H](O)[C@H](O)[C@H](C)O2)O1 (mixture of isomers) [BCH2117, (1'S,1S,3R) and (1'S,1R,3S)-methyl-(1-[dideoxy-2',6'-dihydroxy-3',4'-L-lyxohexopyranose]-5,10-dioxo-3,4,5,10-tetrahydronaphtho-[2,3-c]-pyran-3-yl) ketone] | 37.4 | 73 |  | 9.5 | 30 |  |  |  | 
7 | CO[C@@H]1O[C@H](C(=O)Nc2ccccc2)CC2=C1C(=O)c1ccccc1C2=O (relative stereo) [BCH2042, (1,3-cis)-anline-(1-methoxy-5,10-dioxo-3,4,5,10-tetrahydro-1H-naphtho-[2,3-c]-pyran)-3-carboxamide] | 8000 | 2220 | 13200 | 3800 | 1200 |  |  |  | 
8 | CC(=O)C1CC2=C(CO1)C(=O)c1ccccc1C2=O (stereo not drawn) [BCH1125, Methyl (5,10-dioxo-3,4,5,10-tetrahydronaphtho [2,3-C]pyran-3-yl) ketone] | 36400 | 52800 | 92900 | > 100000 | > 100000 |  |  |  | 
9 | CC(=O)C1CC2=C(CO1)C(=O)c1ccc(O)cc1C2=O (stereo not drawn) [BCH1129, Methyl (7-hydroxy-5,10-dioxo-3,4,5,10-tetrahydronaphtho [2,3-C]pyran-3-yl) ketone] | 59400 | 88200 | > 100000 | 73300 | 63200 |  |  |  | 
10 | CC(=O)C1CC2=C(C(=O)c3ccccc3C2=O)C(O)O1 (stereo not drawn) [BCH1148, Methyl (1-hydroxy-5,10-dioxo-3,4,5,10-tetrahydronaphtho [2,3-C]pyran-3-yl) ketone] | > 100000 | > 100000 | > 100000 | > 100000 | > 100000 |  |  |  | 
11 | CC(=O)[C@H]1CC2=C(C(=O)c3ccc(O)cc3C2=O)[C@H](O[C@H]2C[C@H](NC(=O)C(F)(F)F)[C@H](O)[C@H](C)O2)O1 [BCH1180, (1'S,1S,3R)-Methyl (5,10-dioxo-1-(2',3',6'-trideoxy-3'-trifluoroacetamido-L-lyxohexopyranose)-7-hydroxy-3,4,5, 10-tetrahydro[2,3-C]pyran-3-yl) ketone] | 7610 | 3330 | 8680 | 851 | 468 |  |  |  | 
12 | CC(=O)[C@@H]1CC2=C(C(=O)c3ccc(O)cc3C2=O)[C@@H](O[C@H]2C[C@H](NC(=O)C(F)(F)F)[C@H](O)[C@H](C)O2)O1 [BCH1181, (1'S,1R,3S)-Methyl (5,10-dioxo-1-(2',3',6'-trideoxy-3'-trifluoroacetamido-L-lyxohexopyranose)-7-hydroxy-3,4,5, 10-tetrahydro[2,3-C]pyran-3-yl) ketone] | 9230 | 3070 | 8480 | 2260 | 536 |  |  |  | 
13 | Nc1nc(C2CC3=C(CO2)C(=O)c2ccccc2C3=O)cs1 (stereo not drawn) [BCH1189] | 12500 | 14300 | 26600 | 6500 | 16600 |  |  |  | 
14 | C=CCC1CC2=C(C(=O)c3ccccc3C2=O)C(OC2CC(NC(=O)C(F)(F)F)C(O)C(C)O2)O1 (stereo not drawn) [BCH1648] | 360 | 138 |  | 51.9 | 309 |  |  |  | 
15 | CC(NC(=O)C(F)(F)F)[C@H]1CC2=C(C(=O)c3ccccc3C2=O)[C@H](O[C@H]2C[C@H](O)[C@H](O)[C@H](C)O2)O1 (stereo partly drawn) [BCH2018, (1'S,1S,3R)-3-(trifluoroacetamidoethyl)-5,10-dioxo-1-(2',3',6'-trideoxy-3',4'-dihydroxy-L-lyxohexopyranose)-3,4,5,10-tetrahydro-1H-naphtho-[2,3-c]-pyran] |  |  |  |  |  | 8560 | 2380 | 3110 | 14200
16 | CC(=O)[C@H]1CC2=C(C(=O)c3ccccc3C2=O)[C@H](O[C@H]2C[C@H](NC(=O)C(F)(F)F)[C@H](OC(=O)CBr)[C@H](C)O2)O1 [BCH2105, (1'-S, 1-S, 3-R)-methyl-(1-[2',3',4',6' tetradeoxy-3'-trifluoroacetamido-4'-O-(2-bromo-acetyl)-L-lyxopyranose]-5, 10-dioxo-3,4,5,10 tetrahydronaphtho-[2,3-c]pyran-3-yl) ketone] | 19 | 25 |  | 3 | 6.9 |  |  |  | 
17 | COC1OC(C(=O)NCCCn2ccnc2)=CC2=C1C(=O)c1ccccc1C2=O (stereo not drawn) [BCH2157, (3-N-hydrochloroimidazolylpropyl)-1-methoxy-5,10-dioxo-5,10-dihydro-1H-naphtho-[2,3-c]-pyran-3-carboxamide] |  |  |  |  |  | 233 | 15.5 | 187 | 1230
18 | CCCC1OC(C(=O)NCCCN(C)C)=CC2=C1C(=O)c1ccccc1C2=O (stereo not drawn) [BCH2168, 1-propyl-3-(3-dimethylaminopropylaminocarbonyl)-5,10-dihydro-5,10-dioxo-1H-naphtho-[2,3-c]-pyran] | 573 |  | 980 | 180 to 276 | 393 to 1200 |  |  |  | 

— patent US5606037A, “Processes antineoplastic heteronaphthoquinones” (BioChem Pharma Inc., priority 1995, dated 1997)
